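Dose response: 5 concentrations. Exposure: 48 h. Format: 96-well plates. Endpoint: linear interpolation; highest concentration if not reached. At the GI50, growth is halved.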 Active and inactive are the calls of the source. Rule as the data show it: active = GI50 up to about 1.1 µM and inactive = higher.
Tests used:
Assay in all cases: NCI tumour cell line growth inhibition, 48 h
IGROV-1 = test system: IGROV-1
RPMI-8226 = test system: RPMI-8226
HOP-62 = test system: HOP-62
HCT-15 = test system: HCT-15
RXF 393 = test system: RXF 393
MOLT-4 = test system: MOLT-4
U-251 = test system: U-251
UACC-257 = test system: UACC-257
KM12 = test system: KM12
A549 = test system: A549
LOX IMVI = test system: LOX IMVI
SF-539 = test system: SF-539
SF-268 = test system: SF-268
HCC 2998 = test system: HCC 2998
OVCAR-4 = test system: OVCAR-4
A498 = test system: A498
CAKI-1 = test system: CAKI-1

| Structure (SMILES) | GI50 (IGROV-1) | GI50 (RPMI-8226) | GI50 (HOP-62) | GI50 (HCT-15) [µM] | GI50 (RXF 393) | GI50 (MOLT-4) | GI50 (U-251) | GI50 (UACC-257) | GI50 (KM12) | GI50 (A549) | GI50 (LOX IMVI) | GI50 (SF-539) | GI50 (SF-268) | GI50 (HCC 2998) | GI50 (OVCAR-4) | GI50 (A498) | GI50 (CAKI-1) |
| --- | --- | --- | --- | --- | --- | --- | --- | --- | --- | --- | --- | --- | --- | --- | --- | --- | --- |
| Cc1ccc2c(c1)C1(C)OC(CC(N)C1O)O2 (stereo not drawn) | > 100 µM (inactive) | > 100 µM (inactive) | > 100 µM (inactive) | > 100 | > 100 µM (inactive) | > 100 µM (inactive) | > 100 µM (inactive) | > 100 µM (inactive) | > 100 µM (inactive) | > 100 µM (inactive) | > 100 µM (inactive) | > 100 µM (inactive) | – | – | – | – | – |
| C/C(=N\N(C)C)C(CN(C)C)C(c1ccccc1)c1c(O)c2ccccc2oc1=O (stereo not drawn) | > 100 µM (inactive) | > 100 µM (inactive) | – | > 100 | > 100 µM (inactive) | > 100 µM (inactive) | > 100 µM (inactive) | > 100 µM (inactive) | > 100 µM (inactive) | > 100 µM (inactive) | > 100 µM (inactive) | – | > 100 µM (inactive) | > 100 µM (inactive) | > 100 µM (inactive) | – | – |
| Cc1cccc(C(C)(C)C)c1NC(=O)CC1Sc2ccccc2NC1=O (stereo not drawn) | > 100 µM (inactive) | 19 µM (inactive) | > 100 µM (inactive) | – | – | 43.3 µM (inactive) | 25.6 µM (inactive) | 36.2 µM (inactive) | 95.1 µM (inactive) | > 100 µM (inactive) | – | > 100 µM (inactive) | 87.9 µM (inactive) | > 100 µM (inactive) | > 100 µM (inactive) | > 100 µM (inactive) | 87.3 µM (inactive) |
| Nc1ccc(C(=O)N/C(=C\C=C\c2ccco2)c2nc3c(O)nc(S)nc3[nH]2)cc1 | > 100 µM (inactive) | – | – | > 100 | > 100 µM (inactive) | > 100 µM (inactive) | > 100 µM (inactive) | – | > 100 µM (inactive) | > 100 µM (inactive) | – | > 100 µM (inactive) | > 100 µM (inactive) | > 100 µM (inactive) | > 100 µM (inactive) | – | > 100 µM (inactive) |
| COc1ccc(C(=O)O)c(Br)c1OCc1ccccc1 | > 100 µM (inactive) | > 100 µM (inactive) | > 100 µM (inactive) | > 100 | > 100 µM (inactive) | > 100 µM (inactive) | > 100 µM (inactive) | – | > 100 µM (inactive) | > 100 µM (inactive) | > 100 µM (inactive) | > 100 µM (inactive) | > 100 µM (inactive) | – | > 100 µM (inactive) | > 100 µM (inactive) | – |
| CCCCCc1cc(OC(=O)c2c(O)cc(OC)cc2CCCCC)cc(O)c1C(=O)O | 16.6 µM (inactive) | 14.5 µM (inactive) | 16.4 µM (inactive) | 12.6 | 16 µM (inactive) | 23.5 µM (inactive) | 15.2 µM (inactive) | – | 17.3 µM (inactive) | 17.8 µM (inactive) | 17.7 µM (inactive) | 16.8 µM (inactive) | 13.2 µM (inactive) | 15.3 µM (inactive) | 20 µM (inactive) | 19.8 µM (inactive) | 19.1 µM (inactive) |
| O/N=C(\C(=N/O)Nc1ccc(-c2ccc(NC(=N/O)/C(=N\O)c3ccccc3)cc2)cc1)c1ccccc1 | 25.1 µM (inactive) | 25.9 µM (inactive) | 11 µM (inactive) | 27.3 | – | 17.3 µM (inactive) | 25.7 µM (inactive) | 29.9 µM (inactive) | 19 µM (inactive) | 31.5 µM (inactive) | 15.3 µM (inactive) | 18.9 µM (inactive) | 27.4 µM (inactive) | 0.214 µM (active) | – | 24.1 µM (inactive) | 22.4 µM (inactive) |
| O=C(Nc1cccc([N+](=O)[O-])c1)C(=O)C(C(=O)c1ccccc1-c1ccccc1)C1OC(=O)c2ccccc21 (stereo not drawn) | 30.8 µM (inactive) | 13.4 µM (inactive) | 16.6 µM (inactive) | – | 13.3 µM (inactive) | 13.2 µM (inactive) | 13.4 µM (inactive) | 20.1 µM (inactive) | 20 µM (inactive) | 26.9 µM (inactive) | 17 µM (inactive) | 14.5 µM (inactive) | 22.2 µM (inactive) | 16.2 µM (inactive) | – | 23.2 µM (inactive) | – |
| Cc1ccc(C[P+]2(c3ccccc3)CCCCC2)cc1.[O-][Cl+3]([O-])([O-])[O-] | 21.3 µM (inactive) | 7.43 µM (inactive) | 99.8 µM (inactive) | 51.6 | > 100 µM (inactive) | 33 µM (inactive) | 12.5 µM (inactive) | 6.28 µM (inactive) | 28.5 µM (inactive) | 73.5 µM (inactive) | 26.2 µM (inactive) | 25 µM (inactive) | – | 21 µM (inactive) | 41.4 µM (inactive) | > 100 µM (inactive) | – |
| CCC(CO)Nc1nc2c(c(=O)n(C)c(=O)n2C)n1CCO (stereo not drawn) | > 100 µM (inactive) | > 100 µM (inactive) | – | > 100 | > 100 µM (inactive) | > 100 µM (inactive) | > 100 µM (inactive) | > 100 µM (inactive) | > 100 µM (inactive) | > 100 µM (inactive) | – | > 100 µM (inactive) | > 100 µM (inactive) | > 100 µM (inactive) | – | – | – |
| CC1=CC(/C=C(\C)CCCc2ccoc2)C2(OC(=O)C(C)=C2O)[C@H]2C1CC[C@@H]2C (stereo partly drawn) | 32.3 µM (inactive) | 13.3 µM (inactive) | – | 15.5 | 18.3 µM (inactive) | 19.2 µM (inactive) | 25 µM (inactive) | 29.5 µM (inactive) | 31.8 µM (inactive) | 23.4 µM (inactive) | 21.8 µM (inactive) | 17.5 µM (inactive) | – | 29.9 µM (inactive) | – | 15.5 µM (inactive) | 32.1 µM (inactive) |
| CC#C[C@@]1(O)CCCCC1O (stereo partly drawn) | > 100 µM (inactive) | > 100 µM (inactive) | > 100 µM (inactive) | > 100 | > 100 µM (inactive) | > 100 µM (inactive) | > 100 µM (inactive) | > 100 µM (inactive) | > 100 µM (inactive) | > 100 µM (inactive) | > 100 µM (inactive) | > 100 µM (inactive) | > 100 µM (inactive) | > 100 µM (inactive) | > 100 µM (inactive) | > 100 µM (inactive) | – |
| COC(=O)C(=O)C(CC(=O)Nc1cccc(C(F)(F)F)c1)C(=O)OC (stereo not drawn) | > 100 µM (inactive) | > 100 µM (inactive) | > 100 µM (inactive) | > 100 | > 100 µM (inactive) | > 100 µM (inactive) | > 100 µM (inactive) | – | – | > 100 µM (inactive) | > 100 µM (inactive) | > 100 µM (inactive) | > 100 µM (inactive) | > 100 µM (inactive) | > 100 µM (inactive) | > 100 µM (inactive) | > 100 µM (inactive) |
| COC(=O)C(C#CCCCCC#CC(NC(=O)OCc1ccccc1)(C(=O)OC)C(F)(F)F)(NC(=O)OCc1ccccc1)C(F)(F)F (stereo not drawn) | > 100 µM (inactive) | 4.36 µM (inactive) | > 100 µM (inactive) | > 100 | > 100 µM (inactive) | – | > 100 µM (inactive) | > 100 µM (inactive) | > 100 µM (inactive) | 73.6 µM (inactive) | > 100 µM (inactive) | > 100 µM (inactive) | > 100 µM (inactive) | > 100 µM (inactive) | > 100 µM (inactive) | > 100 µM (inactive) | > 100 µM (inactive) |
| NC(=O)C1C(=O)Oc2cccnc21 (stereo not drawn) | > 100 µM (inactive) | > 100 µM (inactive) | > 100 µM (inactive) | > 100 | > 100 µM (inactive) | > 100 µM (inactive) | > 100 µM (inactive) | 89.9 µM (inactive) | > 100 µM (inactive) | > 100 µM (inactive) | > 100 µM (inactive) | > 100 µM (inactive) | – | – | – | – | – |
| O=C1COc2cc3c(cc2N1)SCCC(=O)N3 | > 100 µM (inactive) | > 100 µM (inactive) | > 100 µM (inactive) | – | – | > 100 µM (inactive) | – | > 100 µM (inactive) | > 100 µM (inactive) | > 100 µM (inactive) | – | > 100 µM (inactive) | > 100 µM (inactive) | > 100 µM (inactive) | > 100 µM (inactive) | > 100 µM (inactive) | > 100 µM (inactive) |
| COc1cc2c(c3c1C=CCO3)C(=O)c1ccccc1C2=O | 26.8 µM (inactive) | 32.8 µM (inactive) | 41.3 µM (inactive) | 29.6 | > 100 µM (inactive) | 23.6 µM (inactive) | 30.8 µM (inactive) | 25.3 µM (inactive) | 30.3 µM (inactive) | 38.5 µM (inactive) | 28.6 µM (inactive) | 36.1 µM (inactive) | 47.6 µM (inactive) | 50.2 µM (inactive) | – | – | – |
| CC(=O)Oc1c2c(c(O)c3ccccc13)C(n1cnc3c(ncn3C3OC(CO)C4OC(C)(C)OC43)c1=N)CCC2 (stereo not drawn) | 20.2 µM (inactive) | 3.1 µM (inactive) | 16.7 µM (inactive) | 14.8 | 18.3 µM (inactive) | 11.1 µM (inactive) | 18.9 µM (inactive) | 10.2 µM (inactive) | 14.4 µM (inactive) | 19.1 µM (inactive) | 4.81 µM (inactive) | 18.2 µM (inactive) | 16.4 µM (inactive) | 15 µM (inactive) | – | 17.3 µM (inactive) | 25.4 µM (inactive) |
| COC1CC(OS(=O)(=O)c2ccc(C)cc2)C(OS(=O)(=O)c2ccc(C)cc2)C(COS(=O)(=O)c2ccc(C)cc2)O1 (stereo not drawn) | 4.89 µM (inactive) | 19.4 µM (inactive) | 2.18 µM (inactive) | 5.35 | 1.71 µM (inactive) | > 100 µM (inactive) | 3.01 µM (inactive) | 8.89 µM (inactive) | 52 µM (inactive) | 5.9 µM (inactive) | – | 1.88 µM (inactive) | 1.02 µM (active) | 12.8 µM (inactive) | 0.336 µM (active) | – | 2.72 µM (inactive) |
